Source: ChEMBL document CHEMBL1909046, “DrugMatrix in vitro pharmacology data”

How the values were obtained:
D(3) dopamine receptor = D(3) dopamine receptor (Homo sapiens, UniProt P35462); assay: DRUGMATRIX: Dopamine D3 radioligand binding (ligand: [3H] Spiperone); assay type: cell membranes, CHO, Membrane; settings: cho
[1] = DRUGMATRIX: Imidazoline I2, Central radioligand binding (ligand: [3H] Idazoxan); assay type: cell membranes, Rattus norvegicus, Wistar, Cerebral cortex, Membrane; settings: Not Active = under 50% inhibition at 10 µM
[2] = target: Beta-2 adrenergic receptor (Homo sapiens, UniProt P07550); assay: DRUGMATRIX: Adrenergic beta2 radioligand binding (ligand: [3H] CGP-12177); assay type: cell membranes, Membrane; settings: cho; Not Active = under 50% inhibition at 10 µM
[3] = DRUGMATRIX: Glutamate, NMDA, Phencyclidine radioligand binding (ligand: [3H] TCP); assay type: cell membranes, Rattus norvegicus, Wistar, Cerebral cortex, Membrane; settings: Not Active = under 50% inhibition at 10 µM
[4] = DRUGMATRIX: Glutamate, NMDA, Agonism radioligand binding (ligand: [3H] CGP-39653); assay type: cell membranes, Rattus norvegicus, Wistar, Cerebral cortex, Membrane; settings: Not Active = under 50% inhibition at 10 µM
[5] = target: T1, Neuropeptide Y receptor type 2 (Homo sapiens, UniProt P49146); assay type: cell membranes, Membrane; settings: kan-ts; further: in other assays of this panel Not Active means under 50% inhibition at 10 µM
T1 sequence (P49146 whole entry): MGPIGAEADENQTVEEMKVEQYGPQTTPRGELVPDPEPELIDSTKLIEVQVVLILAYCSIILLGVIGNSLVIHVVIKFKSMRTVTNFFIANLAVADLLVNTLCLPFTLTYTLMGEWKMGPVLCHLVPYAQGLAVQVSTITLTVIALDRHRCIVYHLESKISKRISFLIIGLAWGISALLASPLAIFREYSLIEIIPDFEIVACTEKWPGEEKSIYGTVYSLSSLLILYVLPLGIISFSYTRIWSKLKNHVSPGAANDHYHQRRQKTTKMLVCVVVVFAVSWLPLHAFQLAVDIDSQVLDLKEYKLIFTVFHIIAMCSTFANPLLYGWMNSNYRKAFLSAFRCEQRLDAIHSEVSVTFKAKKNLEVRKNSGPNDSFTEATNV

[6] = target: Tyrosine-protein kinase Lck (Homo sapiens, UniProt P06239); assay: DRUGMATRIX: Protein Tyrosine Kinase, LCK enzyme inhibition (substrate: Poly(Glu:Tyr)); assay type: cell-based, Insect cells; settings: insect cells; Not Active = under 50% inhibition at 10 µM
Chain of Tyrosine-protein kinase Lck (P06239 whole entry): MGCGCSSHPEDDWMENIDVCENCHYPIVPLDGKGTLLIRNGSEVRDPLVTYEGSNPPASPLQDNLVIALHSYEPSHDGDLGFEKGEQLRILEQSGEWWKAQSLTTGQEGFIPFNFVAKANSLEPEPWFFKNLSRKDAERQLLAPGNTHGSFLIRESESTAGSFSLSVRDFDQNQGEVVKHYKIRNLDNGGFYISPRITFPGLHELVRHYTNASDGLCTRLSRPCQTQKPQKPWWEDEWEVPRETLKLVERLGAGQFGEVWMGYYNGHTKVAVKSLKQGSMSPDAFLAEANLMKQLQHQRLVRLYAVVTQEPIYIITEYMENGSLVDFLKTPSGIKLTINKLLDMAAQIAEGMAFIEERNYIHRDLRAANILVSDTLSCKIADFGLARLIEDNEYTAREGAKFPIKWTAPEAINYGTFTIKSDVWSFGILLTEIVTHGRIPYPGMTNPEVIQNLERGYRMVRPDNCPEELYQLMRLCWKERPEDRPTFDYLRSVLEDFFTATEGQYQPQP

Chain of D(3) dopamine receptor (P35462 whole entry): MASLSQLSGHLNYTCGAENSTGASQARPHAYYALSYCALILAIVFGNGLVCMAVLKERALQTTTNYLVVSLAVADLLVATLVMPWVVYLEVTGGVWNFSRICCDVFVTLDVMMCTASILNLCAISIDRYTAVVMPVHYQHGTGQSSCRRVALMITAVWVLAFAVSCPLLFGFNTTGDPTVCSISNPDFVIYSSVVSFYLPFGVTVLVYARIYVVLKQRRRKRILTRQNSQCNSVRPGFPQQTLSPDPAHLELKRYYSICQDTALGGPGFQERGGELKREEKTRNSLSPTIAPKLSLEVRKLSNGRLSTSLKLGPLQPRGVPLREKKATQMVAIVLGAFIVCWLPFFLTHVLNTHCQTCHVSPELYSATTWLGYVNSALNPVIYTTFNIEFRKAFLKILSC

CCN(CC)CCOC(=O)c1ccc(N)cc1 [PROCAINE]
Not Active: IC50 (D(3) dopamine receptor) | IC50 [1] | Ki [1] | IC50 [2] | IC50 [3] | Ki [3] | IC50 [4] | Ki [4] | IC50 [5] | IC50 [6]

CCCN(CCC)C(=O)C(CCC(=O)O)NC(=O)c1ccccc1 (centres undefined) [PROGLUMIDE]
Not Active: IC50 (D(3) dopamine receptor) | IC50 [1] | Ki [1] | IC50 [2] | IC50 [3] | Ki [3] | IC50 [4] | Ki [4] | IC50 [5] | IC50 [6]

NC(=O)c1cnccn1 [PYRAZINAMIDE]
Not Active: IC50 (D(3) dopamine receptor) | IC50 [1] | Ki [1] | IC50 [2] | IC50 [3] | Ki [3] | IC50 [4] | Ki [4] | IC50 [5] | IC50 [6]

OC(CCN1CCCCC1)(c1ccccc1)C1CCCCC1 (centres undefined) [TRIHEXYPHENIDYL]
Not Active: IC50 (D(3) dopamine receptor) | IC50 [1] | Ki [1] | IC50 [2] | IC50 [3] | Ki [3] | IC50 [4] | Ki [4] | IC50 [5] | IC50 [6]

Cc1cc2cc3c(C)cc(=O)oc3c(C)c2o1 [TRIOXSALEN]
Not Active: IC50 (D(3) dopamine receptor) | IC50 [1] | Ki [1] | IC50 [2] | IC50 [3] | Ki [3] | IC50 [4] | Ki [4] | IC50 [5] | IC50 [6]

CCCC(CCC)C(=O)O [VALPROIC ACID]
Not Active: IC50 (D(3) dopamine receptor) | IC50 [1] | Ki [1] | IC50 [2] | IC50 [3] | Ki [3] | IC50 [4] | Ki [4] | IC50 [5] | IC50 [6]

CCC1=C[C@@H]2CN(C1)Cc1c([nH]c3ccccc13)[C@@](C(=O)OC)(c1cc3c(cc1OC)N(C)[C@H]1[C@@](O)(C(=O)OC)[C@H](OC(C)=O)[C@]4(CC)C=CCN5CC[C@]31[C@@H]54)C2 [VINORELBINE]
Not Active: IC50 (D(3) dopamine receptor) | IC50 [1] | Ki [1] | IC50 [2] | IC50 [3] | Ki [3] | IC50 [4] | Ki [4] | IC50 [5] | IC50 [6]

CADMIUM DICHLORIDE
Not Active: IC50 (D(3) dopamine receptor) | Ki (D(3) dopamine receptor) | IC50 [1] | Ki [1] | IC50 [2] | Ki [2] | IC50 [3] | Ki [3] | IC50 [4] | Ki [4] | IC50 [5] | Ki [5] | IC50 [6] | Ki [6]
